Measurements published in patent publication US20210101874A1, “MICROBIOCIDAL OXADIAZOLE DERIVATIVES” (SYNGENTA PARTICIPATIONS AG, priority 2017, published 2021).

How the values were obtained:
[1] = test system: Puccinia recondita f. sp. Tritici; assay: Puccinia recondita f. sp. tritici / wheat / leaf disc preventative (brown rust); type: in vivo; details: foliar, 200 ppm in the applied formulation, wheat leaf segments cv. Kanzler, inoculated 1 day after application, compared to untreated, assessed 7 to 9 days after application, read-out: disease control
Experimental: Leaf disks or leaf segments of various plant species are cut from plants grown in a greenhouse. The cut leaf disks or segments are placed in multiwell plates (24-well format) onto water agar. The leaf disks are sprayed with a test solution before (preventative) or after (curative) inoculation. Compounds to be tested are prepared as DMSO solutions (max. 10 mg/ml) which are diluted to the appropriate concentration with 0.025% Tween20 just before spraying. The inoculated leaf disks or segments are incubated under defined conditions (temperature, relative humidity, light, etc.) according to the respective test system. A single evaluation of disease level is carried out 3 to 14 days after inoculation, depending on the pathosystem. Percent disease control relative to the untreated check leaf disks or segments is then calculated. Wheat leaf segments cv. Kanzler were placed on agar in multiwell plates (24-well format) and sprayed with the formulated test compound diluted in water. The leaf disks were inoculated with a spore suspension of the fungus 1 day after application. The inoculated leaf segments were incubated at 19° C. and 75% relative humidity (rh) under a light regime of 12 hours light/12 hours darkness in a climate cabinet and the activity of a compound was assessed as percent disease control compared to untreated when an appropriate level of disease damage appears in untreated check leaf segments (7 to 9 days after application). The following compounds at 200 ppm in the applied formulation give at least 80% disease control in this test when compared to untreated control leaf disks under the same conditions, which show extensive disease development.

[2] = test system: Glomerella lagenarium (Colletotrichum lagenarium); assay: Glomerella lagenarium (Colletotrichum lagenarium) liquid culture / cucumber / preventative (anthracnose); type: cell-based; details: Colletotrichum orbiculare; 20 ppm in the applied formulation; conidia in PDB nutrient broth, 24° C.; 3 to 4 days after application; compared to untreated; read-out: disease control (inhibition of growth measured photometrically)
Experimental: Mycelia fragments or conidia suspensions of a fungus prepared either freshly from liquid cultures of the fungus or from cryogenic storage, are directly mixed into nutrient broth. DMSO solutions of the test compound (max. 10 mg/ml) are diluted with 0.025% Tween20 by a factor of 50 and 10 µl of this solution is pipetted into a microtiter plate (96-well format). The nutrient broth containing the fungal spores/mycelia fragments is then added to give an end concentration of the tested compound. The test plates are incubated in the dark at 24° C. and 96% relative humidity. The inhibition of fungal growth is determined photometrically after 2 to 7 days, depending on the pathosystem, and percent antifungal activity relative to the untreated check is calculated. Conidia of the fungus from cryogenic storage are directly mixed into nutrient broth (PDB—potato dextrose broth). After placing a (DMSO) solution of test compound into a microtiter plate (96-well format), the nutrient broth containing the fungal spores is added. The test plates are incubated at 24° C. and the inhibition of growth is measured photometrically 3 to 4 days after application. The following compounds at 20 ppm in the applied formulation give at least 80% disease control in this test when compared to untreated control under the same conditions, which show extensive disease development.

| Structure (SMILES) | pest or weed control at 200 ppm [1] | inhibition at 20 ppm [2] |
| --- | --- | --- |
| COC(=O)CCS(=O)(=O)N(C)Cc1ccc(-c2noc(C(F)(F)F)n2)cc1 [Compound 1.48, methyl 3-[methyl-[[4-[5-(trifluoromethyl)-1,2,4-oxadiazol-3-yl]phenyl]methyl]sulfamoyl]propanoate] | ≥ 80% | ≥ 80% |
| COC(=O)CS(=O)(=O)N(C)Cc1ccc(-c2noc(C(F)(F)F)n2)cc1 [Compound 1.53, methyl 2-[methyl-[[4-[5-(trifluoromethyl)-1,2,4-oxadiazol-3-yl]phenyl]methyl]sulfamoyl]acetate] | ≥ 80% | ≥ 80% |
| CC(C)S(=O)(=O)N(C)Cc1ccc(-c2noc(C(F)(F)F)n2)cc1 [Compound 1.54, N-methyl-N-[[4-[5-(trifluoromethyl)-1,2,4-oxadiazol-3-yl]phenyl]methyl] propane-2-sulfonamide] | ≥ 80% | ≥ 80% |
| CCN(Cc1ccc(-c2noc(C(F)(F)F)n2)cc1)S(=O)(=O)Cc1ccccc1 [Compound 1.60, N-ethyl-1-phenyl-N-[[4-[5-(trifluoromethyl)-1,2,4-oxadiazol-3-yl]phenyl]methyl] methanesulfonamide] | ≥ 80% | ≥ 80% |
| CCCN(Cc1ccc(-c2noc(C(F)(F)F)n2)cc1)S(=O)(=O)c1ccn(C)n1 [Compound 1.65, 1-methyl-N-propyl-N-[[4-[5-(trifluoromethyl)-1,2,4-oxadiazol-3-yl]phenyl]methyl] pyrazole-3-sulfonamide] | ≥ 80% | ≥ 80% |
| CCCN(Cc1ccc(-c2noc(C(F)(F)F)n2)cc1)S(=O)(=O)N1CCCC1 [Compound 1.68, N-propyl-N-[[4-[5-(trifluoromethyl)-1,2,4-oxadiazol-3-yl]phenyl]methyl] pyrrolidine-1-sulfonamide] | ≥ 80% | ≥ 80% |
| CCCN(Cc1ccc(-c2noc(C(F)(F)F)n2)cc1)S(=O)(=O)CC1CCOC1 (centres unmarked) [Compound 1.71, N-propyl-1-tetrahydrofuran-3-yl-N-[[4-[5-(trifluoromethyl)-1,2,4-oxadiazol-3-yl]phenyl]methyl] methanesulfonamide] | ≥ 80% | ≥ 80% |
| CCCN(Cc1ccc(-c2noc(C(F)(F)F)n2)cc1)S(=O)(=O)NC [Compound 1.80, 3-[4-[[methylsulfamoyl (propyl)amino]methyl]phenyl]-5-(trifluoromethyl)-1,2,4-oxadiazole] | ≥ 80% | ≥ 80% |
| COC(=O)CCS(=O)(=O)N(Cc1ccc(-c2noc(C(F)(F)F)n2)cc1)OC [Compound 1.93, methyl 3-[methoxy-[[4-[5-(trifluoromethyl)-1,2,4-oxadiazol-3-yl]phenyl]methyl]sulfamoyl]propanoate] | ≥ 80% | ≥ 80% |
| CC(C)N(Cc1ccc(-c2noc(C(F)(F)F)n2)cc1)S(=O)(=O)N1CCCC1 [Compound 1.97, N-isopropyl-N-[[4-[5-(trifluoromethyl)-1,2,4-oxadiazol-3-yl]phenyl]methyl] pyrrolidine-1-sulfonamide] | ≥ 80% | ≥ 80% |
| CON(Cc1ccc(-c2noc(C(F)(F)F)n2)cn1)S(=O)(=O)c1ccccc1 [Compound 1.111, N-methoxy-N-[[5-[5-(trifluoromethyl)-1,2,4-oxadiazol-3-yl]-2-pyridyl]methyl] benzenesulfonamide] | ≥ 80% | ≥ 80% |
| C/C=C/S(=O)(=O)NCc1ccc(-c2noc(C(F)(F)F)n2)cc1 [Compound 2.10, (E)-N-[[4-[5-(trifluoromethyl)-1,2,4-oxadiazol-3-yl]phenyl]methyl] prop-1-ene-1-sulfonamide] | ≥ 80% | ≥ 80% |
| CCCCS(=O)(=O)NCc1ccc(-c2noc(C(F)(F)F)n2)cc1 [Compound 2.12, N-[[4-[5-(trifluoromethyl)-1,2,4-oxadiazol-3-yl]phenyl]methyl] butane-1-sulfonamide] | ≥ 80% | ≥ 80% |
| O=S(=O)(CCC(F)(F)F)NCc1ccc(-c2noc(C(F)(F)F)n2)c(F)c1 [Compound 2.18, 3,3,3-trifluoro-N-[[3-fluoro-4-[5-(trifluoromethyl)-1,2,4-oxadiazol-3-yl]phenyl]methyl] propane-1-sulfonamide] | ≥ 80% | ≥ 80% |
| CCCCS(=O)(=O)NCc1ccc(-c2noc(C(F)(F)F)n2)c(F)c1 [Compound 2.22, N-[[3-fluoro-4-[5-(trifluoromethyl)-1,2,4-oxadiazol-3-yl]phenyl]methyl] butane-1-sulfonamide] | ≥ 80% | ≥ 80% |
| COC(=O)CCS(=O)(=O)NCc1ccc(-c2noc(C(F)(F)F)n2)cc1F [Compound 2.33, methyl 3-[[2-fluoro-4-[5-(trifluoromethyl)-1,2,4-oxadiazol-3-yl]phenyl]methyl-sulfamoyl] propanoate] | ≥ 80% | ≥ 80% |
| COC(=O)CS(=O)(=O)NCc1ccc(-c2noc(C(F)(F)F)n2)cc1F [Compound 2.37, methyl 2-[[2-fluoro-4-[5-(trifluoromethyl)-1,2,4-oxadiazol-3-yl]phenyl]methyl-sulfamoyl] acetate] | ≥ 80% | ≥ 80% |
| O=S(=O)(NCc1ccc(-c2noc(C(F)(F)F)n2)c(F)c1)c1ccccc1 [Compound 3.9, N-[[3-fluoro-4-[5-(trifluoromethyl)-1,2,4-oxadiazol-3-yl]phenyl]methyl] benzenesulfonamide] | ≥ 80% | ≥ 80% |
| Cc1ccc(S(=O)(=O)NCc2ccc(-c3noc(C(F)(F)F)n3)cc2)s1 [Compound 3.11, 5-methyl-N-[[4-[5-(trifluoromethyl)-1,2,4-oxadiazol-3-yl]phenyl]methyl] thiophene-2-sulfonamide] | ≥ 80% | ≥ 80% |
| O=S(=O)(CC1CC1(Cl)Cl)NCc1ccc(-c2noc(C(F)(F)F)n2)cc1 (centres unmarked) [Compound 3.12, 1-(2,2-dichlorocyclopropyl)-N-[[4-[5-(trifluoromethyl)-1,2,4-oxadiazol-3-yl]phenyl]methyl] methanesulfonamide] | ≥ 80% | ≥ 80% |
| O=S(=O)(NCc1ccc(-c2noc(C(F)(F)F)n2)cc1)N1CCCC1 [Compound 3.13, N-[[4-[5-(trifluoromethyl)-1,2,4-oxadiazol-3-yl]phenyl]methyl] pyrrolidine-1-sulfonamide] | ≥ 80% | ≥ 80% |
| O=S(=O)(CC1CC1(Cl)Cl)NCc1ccc(-c2noc(C(F)(F)F)n2)c(F)c1 (centres unmarked) [Compound 3.16, 1-(2,2-dichlorocyclopropyl)-N-[[3-fluoro-4-[5-(trifluoromethyl)-1,2,4-oxadiazol-3-yl]phenyl]methyl] methanesulfonamide] | ≥ 80% | ≥ 80% |
